Measurements published in patent publication US11179412B2, “Methods of treating conditions involving elevated inflammatory response” (University of Pittsburgh—Of the Commonwealth System of …, priority 2017, dated 2021).
Structures can show the parent of a compound that is named as a salt.

Test system: STING activation (IFNβ release) in iBMDMs
Assay: IFNβ release ELISA after STING ligand (or LPS) stimulation, iBMDMs
Format: cell-based, mouse
Settings: iBMDMs; 3′3′-cGAMP 10 μg/ml, 16 hours; compound 10 μM
Outline: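 iBMDMs were stimulated with a STING ligand such as 3′3′-cGAMP, or with LPS. Secreted IFNβ in culture medium was measured by commercial mouse or human IFNβ ELISA.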

## COc1cc(OC)c(/C=C/S(=O)(=O)Cc2ccc(OC)c(NCC(=O)O)c2)c(OC)c1 [Rigosertib (ON-01910), Rigosertib]
  fold increase in IFN-β release: 0.96 fold

## Cc1c(C(=O)NN2CCCCC2)nn(-c2ccc(Cl)cc2Cl)c1-c1ccc(Cl)cc1 [Rimonabant]
  fold increase in IFN-β release: 0.81 fold

## O=C(NC[C@H]1CN(c2ccc(N3CCOCC3=O)cc2)C(=O)O1)c1ccc(Cl)s1 [Rivaroxaban]
  fold increase in IFN-β release: 0.54 fold

## CN(C)CCc1c[nH]c2ccc(Cn3cncn3)cc12 [Rizatriptan Benzoate]
  fold increase in IFN-β release: 2.85 fold

## COc1cc(C(=O)NC2CCN(C)CC2)ccc1Nc1ncc2c(n1)N(C1CCCC1)CC(F)(F)C(=O)N2C [Ro3280]
  fold increase in IFN-β release: 2.16 fold

## COc1ccc(C2CNC(=O)C2)cc1OC1CCCC1 (stereo not shown) [Rolipram]
  fold increase in IFN-β release: 1.85 fold

## COc1cc2c(cc1OC)[C@@H]1Cc3ccc(OC)c(OC)c3CN1CC2 [Rotundine]
  fold increase in IFN-β release: 0.54 fold

## CC(=O)OCC(=O)NCCCOc1cccc(CN2CCCCC2)c1 [Roxatidine Acetate HCl]
  fold increase in IFN-β release: 3.16 fold

## N#CC[C@H](C1CCCC1)n1cc(-c2ncnc3[nH]ccc23)cn1 [Ruxolitinib (INCB018424), Ruxolitinib]
  fold increase in IFN-β release: 0.20 fold

## Cc1nn(-c2ccccc2)c(C)c1/C=N/N1CCN(Cc2ccccc2)CC1 [SANT-1]
  fold increase in IFN-β release: 1.49 fold

## CCn1c(N)c(C(=O)NC)c(=O)c2ccc(C#C[C@@](C)(O)COC)nc21 [SAR131675]
  fold increase in IFN-β release: 1.13 fold

## C[S+]([O-])c1ccc(-c2nc(-c3ccc(F)cc3)c(-c3ccncc3)[nH]2)cc1 (stereo not shown) [SB203580]
  fold increase in IFN-β release: 0.35 fold

## Cc1cc(NC(=O)Nc2ccc(N(C)C)cc2)c2cc(F)cc(F)c2n1 [SB408124]
  fold increase in IFN-β release: 1.90 fold

## O=C1NC(=O)C(c2ccccc2[N+](=O)[O-])=C1Nc1ccc(O)c(Cl)c1 [SB415286]
  fold increase in IFN-β release: 1.15 fold

## NC(=O)c1ccc(-c2nc(-c3ccccn3)c(-c3ccc4c(c3)OCO4)[nH]2)cc1 [SB431542]
  fold increase in IFN-β release: 0.78 fold

## O=C(Nc1ccccc1Br)N[C@@H]1CCN(c2ccc(C(F)(F)F)cn2)C1 [SB705498]
  fold increase in IFN-β release: 0.32 fold

## O=S(=O)(c1ccccc1)c1cnc2c(N3CCNCC3)cccc2c1 [SB742457]
  fold increase in IFN-β release: 0.65 fold

## Cc1ccc(C(=O)N(CCCN)[C@@H](c2oc3cc(Cl)ccc3c(=O)c2Cc2ccccc2)C(C)C)cc1 [SB743921]
  fold increase in IFN-β release: 1.16 fold

## O=S(=O)(CC1CS1)c1ccc(Oc2ccccc2)cc1 (stereo not shown) [SB-3CT]
  fold increase in IFN-β release: 0.49 fold

## O=C(NNc1nc2cc(F)ccc2n2cccc12)c1cnccn1 [SC144]
  fold increase in IFN-β release: 2.63 fold

## CC(C)N(CCCNC(=O)Nc1ccc(C(C)(C)C)cc1)C[C@H]1O[C@@H](n2cc(Br)c3c(N)ncnc32)[C@H](O)[C@@H]1O [SGC 0946]
  fold increase in IFN-β release: 1.90 fold

## Cc1cc(Nc2ccc(NC(=O)c3ccc(Nc4ccnc5ccccc45)cc3)cc2)nc(N)n1 [SGI-1027]
  fold increase in IFN-β release: 0.37 fold

## CN1CCC(CNc2ccc3ncc(-c4cccc(OC(F)(F)F)c4)n3n2)CC1 [SGI-1776 free base]
  fold increase in IFN-β release: 0.65 fold

## Oc1ccc(Nc2nc(-c3ccc(Cl)cc3)cs2)cc1 [SKI II]
  fold increase in IFN-β release: 0.49 fold

## O=C1NC(=O)/C(=C/c2cccc(C(F)(F)F)c2)S1 [SMI-4a]
  fold increase in IFN-β release: 0.84 fold

## CC(C)(C)c1cnc(CSc2cnc(NC(=O)C3CCNCC3)s2)o1 [SNS-032 (BMS-387032)]
  fold increase in IFN-β release: 1.01 fold

## Oc1c2ccccc2c2c3c(cccc13)N=N2 [SP600125]
  fold increase in IFN-β release: 3.35 fold

## O=C(Nc1cc(C(F)(F)F)ccc1N1CCCCC1)c1ccncc1 [SRPIN340]
  fold increase in IFN-β release: 2.38 fold

## O=C(Nc1ccccc1-c1cn2c(CN3CCNCC3)csc2n1)c1cnc2ccccc2n1 [SRT1720]
  fold increase in IFN-β release: 0.76 fold

## COc1c(C)c(C(=O)c2ccc(N)c(C(=O)[O-])c2)n2ccccc12.[Na+] [SSR128129E]
  fold increase in IFN-β release: 0.98 fold

## Cc1ccc(S(=O)(=O)Cc2nc(-c3ccc(C(=O)NCc4cccnc4)cc3)oc2C)cc1 [STF-118804]
  fold increase in IFN-β release: 1.41 fold

## Cc1[nH]c(/C=C2\C(=O)Nc3ccc(S(=O)(=O)N(C)c4cccc(Cl)c4)cc32)c(C)c1C(=O)N1CCN(C)CC1 [SU11274]
  fold increase in IFN-β release: 0.75 fold

## C[C@H](NCc1ccc(OCc2cccc(F)c2)cc1)C(N)=O [Safinamide Mesylate]
  fold increase in IFN-β release: 5.18 fold

## O=C(/C=C/c1ccccc1)NC(NC(=S)Nc1ccc(Cl)cc1)C(Cl)(Cl)Cl (stereo not shown) [Sal003]
  fold increase in IFN-β release: 0.18 fold

## CCOC(=O)NCCCC(=O)NCCc1ccccc1 [Santacruzamate A (CAY10683), Santacruzamate A]
  fold increase in IFN-β release: 1.18 fold

## Cn1cnc2c(F)c(Nc3ccc(Br)cc3Cl)c(C(=O)NOCCO)cc21 [Selumetinib (AZD6244), Selumetinib]
  fold increase in IFN-β release: 0.50 fold

## CC(C)[C@H](O)C(=O)N[C@@H](C)C(=O)N[C@@H]1C(=O)N(C)CCc2ccccc21 [Semagacestat (LY450139), Semagacestat]
  fold increase in IFN-β release: 1.04 fold

## CN[C@H]1CC[C@@H](c2ccc(Cl)c(Cl)c2)c2ccccc21 [Sertraline HCl]
  fold increase in IFN-β release: 0.22 fold

## CC(NC(=O)c1ccccc1/N=C/c1c(O)ccc2ccccc12)c1ccccc1 (stereo not shown) [Sirtinol]
  fold increase in IFN-β release: 0.26 fold

## Cc1cc2c(cc1CC(=O)c1sccc1S(=O)(=O)Nc1onc(C)c1Cl)OCO2 [Sitaxentan sodium]
  fold increase in IFN-β release: 1.16 fold

## Nc1ccc(C(=O)[O-])c(O)c1.[Na+] [Sodium 4-Aminosalicylate]
  fold increase in IFN-β release: 0.74 fold

## CNC(=O)c1cc(Oc2ccc(NC(=O)Nc3ccc(Cl)c(C(F)(F)F)c3)cc2)ccn1 [Sorafenib]
  fold increase in IFN-β release: 0.91 fold

## CN1CCN(c2nc(C3=C(c4c[nH]c5ccccc45)C(=O)NC3=O)c3ccccc3n2)CC1 [Sotrastaurin]
  fold increase in IFN-β release: 0.59 fold

## O=[N+]([O-])c1ccc2c(c1)S(=O)(=O)C=C2 [Stattic]
  fold increase in IFN-β release: 0.10 fold

## Cc1cn([C@H]2C=C[C@@H](CO)O2)c(=O)[nH]c1=O [Stavudine (d4T), Stavudine]
  3′3′-cGAMP-induced IFNβ release: promoted
  fold increase in IFN-β release: 8.20 fold

## Cc1ccc(-n2nccn2)c(C(=O)N2CCN(c3nc4cc(Cl)ccc4o3)CC[C@H]2C)c1 [Suvorexant (MK-4305), Suvorexant]
  fold increase in IFN-β release: 1.54 fold

## O=C(Nc1ccncc1)c1cc([N+](=O)[O-])ccc1Cl [T0070907]
  fold increase in IFN-β release: 2.09 fold

## O=S(=O)(c1ccccc1)N(CC(F)(F)F)c1ccc(C(O)(C(F)(F)F)C(F)(F)F)cc1 [T0901317]
  fold increase in IFN-β release: 1.49 fold

## CNC(=O)c1ccccc1Nc1nc(Nc2ccc(N3CCOCC3)cc2OC)ncc1Cl [TAE226 (NVP-TAE226)]
  fold increase in IFN-β release: 1.50 fold

## CNC(=O)c1ccc2cc([C@@]3(O)CCn4cncc43)ccc2c1 [TAK-700 (Orteronel), Orteronel]
  fold increase in IFN-β release: 2.72 fold

## Cc1cc(OCCCS(C)(=O)=O)cc(C)c1-c1cccc(COc2ccc3c(c2)OC[C@H]3CC(=O)O)c1 [TAK-875]
  fold increase in IFN-β release: 1.17 fold

## O=C1CC(=O)c2c(Cl)c(Cl)c(Cl)c(Cl)c21 [TCID]
  fold increase in IFN-β release: 1.43 fold

## COc1ccc(C(=O)Nc2sc3c(c2C(N)=O)CCCC3)cc1OC [TCS 359]
  fold increase in IFN-β release: 0.45 fold

## Nc1nc(N)c2nc(-c3cccc(O)c3)c(-c3cccc(O)c3)nc2n1 [TG100-115]
  fold increase in IFN-β release: 2.65 fold

## O=C(NCC1(c2nc(-c3ccccc3)cs2)CCOCC1)c1cccc(-c2noc(C(F)(F)F)n2)c1 [TMP269]
  fold increase in IFN-β release: 1.59 fold

## NC(=O)Nc1sc(-c2ccc(F)cc2)cc1C(N)=O [TPCA-1]
  fold increase in IFN-β release: 2.63 fold

## Nc1cccc(-c2cc3c(Oc4cccc(O)c4)ncnc3[nH]2)c1 [TWS119]
  fold increase in IFN-β release: 0.35 fold

## CN1CC(=O)N2[C@H](c3ccc4c(c3)OCO4)c3[nH]c4ccccc4c3C[C@@H]2C1=O [Tadalafil]
  fold increase in IFN-β release: 2.66 fold

## COc1cc2c(N3CCN(C(=O)Nc4ccc(OC(C)C)cc4)CC3)ncnc2cc1OCCCN1CCCCC1 [Tandutinib (MLN518), Tandutinib]
  fold increase in IFN-β release: 0.65 fold

## COc1cc2c(cc1OC)CN(CCc1ccc(NC(=O)c3cc(OC)c(OC)cc3NC(=O)c3cnc4ccccc4c3)cc1)CC2 [Tariquidar]
  fold increase in IFN-β release: 0.77 fold

## CCCc1nc2c(C)cc(-c3nc4ccccc4n3C)cc2n1Cc1ccc(-c2ccccc2C(=O)O)cc1 [Telmisartan]
  fold increase in IFN-β release: 2.26 fold

## CO[C@H]1C[C@@H]2CC[C@@H](C)[C@@](O)(O2)C(=O)C(=O)N2CCCC[C@H]2C(=O)O[C@H]([C@H](C)C[C@@H]2CC[C@@H](OC(=O)C(C)(CO)CO)[C@H](OC)C2)CC(=O)[C@H](C)/C=C(\C)[C@@H](O)[C@@H](OC)C(=O)[C@H](C)C[C@H](C)/C=C/C=C/C=C/1C [Temsirolimus (CCI-779, NSC 683864), Temsirolimus]
  fold increase in IFN-β release: 0.73 fold

## CC(C)OC(=O)OCOP(=O)(CO[C@H](C)Cn1cnc2c(N)ncnc21)OCOC(=O)OC(C)C [Tenofovir Disoproxil Fumarate]
  fold increase in IFN-β release: 2.88 fold

## CN(C)CCCCC(=O)Nc1ccc(NC(=S)NC(=O)c2ccc(C(C)(C)C)cc2)cc1 [Tenovin-6]
  fold increase in IFN-β release: 0.53 fold

## O=C(NCc1ccccc1)c1csc(Nc2ccncn2)n1 [Thiazovivin]
  3′3′-cGAMP-induced IFNβ release: promoted
  fold increase in IFN-β release: 8.11 fold

## CCCSc1nc(N[C@@H]2C[C@H]2c2ccc(F)c(F)c2)c2nnn([C@@H]3C[C@H](OCCO)[C@@H](O)[C@H]3O)c2n1 [Ticagrelor]
  fold increase in IFN-β release: 1.70 fold

## COc1ccc2cc(-c3nc(-c4ccc([S+](C)[O-])cc4)[nH]c3-c3ccncc3)ccc2c1 (stereo not shown) [Tie2 kinase inhibitor]
  fold increase in IFN-β release: 2.04 fold

## O=c1oc2cc(O)ccc2s1 [Tioxolone]
  fold increase in IFN-β release: 1.88 fold
